From US12285397B2, “Use of (s)-3-amino-4-(difluoromethylenyl) cyclopent-1-ene-1-carboxylic acid and related compounds, (1S,3S)-3-amino-4-(difluoromethylidene) cyclopentane-1-carboxylic acid and vigabatrin in the treatment of developmental disorders” (Ovid Therapeutics Inc., priority 2018, dated 2025)

Assays:
Type in all cases: in vivo, mouse
Fmr1 KO2 mice = test: Hyponeophagia (anxiety, latency to eat), Fmr1 KO2 mice
Excerpt: (§1) Mutant fmr1 knockout (KO) mice recapitulate the Fragile X syndrome (FXS) phenotype and represent a preclinical model for assessment of putative drug treatments. In this study three different mice models of FXS were used: Fmr1 KO1 is the original Fmr1 knockout animal that carries an insertion in exon 5. See, e.g., Bakker C E, et al., The Dutch-Belgian Fragile X Consortium, Fmr1 knockout mice: A model to study fragile X mental retardation. Cell. 1994; 78:23-33 It is a protein null, although Fmr1 mRNA is still present. It is backcrossed to the C57/B16 strain. Subsequently, these mice were bred into different background strains, such as the FVB inbred mouse strain. Fmr1 KO2 is a null allele at Fmr1 generated by deletion of the promoter and first exon of Fmr1. See, Mientjes, E J et al., The generation of a conditional Fmr1 knock out mouse model to study Fmrp function in vivo. Neurobiology of Disease (2006) 21(3): 549-555. It is both protein and mRNA null. Backcrossed to the C57/B16 strain. Genotyping was accomplished using TransnetXY Automated Genotyping (http://www.transnetyx.com/). TRANSNETYX, INC., 8110 Cordova Rd. Suite 119, Cordova, TN 38016, USA.
(§2) The mice were housed in plastic cages (35×30×12 cm), 5 in each and habituated to the animal facilities for at least a week before test. The room temperature (21±2° C.), relative humidity (55±5%), a 12-h light-dark cycle (lights on 7 a.m.-7 p.m.) and air exchange (16 times per h) were automatically controlled. The animals had free access to commercial food pellets and water. Testing was conducted during the light phase. Testing was conducted on Fmr1 knockout mice and their wild-type (WT) littermates. Ten mice per treatment group, 14 weeks of age, were used for behavioral experiments. Experiments were conducted in line with the requirements of the UK Animals (Scientific Procedures) Act, 1986.
(§3) Oral dosing was performed by using 1.5-in. curved, 20-gauge, stainless steel feeding needles with a 2.25-mm ball (Braintree Scientific, Braintree, MA). Each gavage treatment was given in 0.5% methyl cellulose (Methyl Cellulose M0512, Sigma-Aldrich, St Louis, MO) used as vehicle with or without treatment compounds. The same veterinarian, blinded to the treatment groups, performed the procedure, and documented animal reactions to oral gavage. Reactions considered to indicate stress were defined as excessive struggling during gavage or abnormal behavior after gavage (labored breathing, frozen stance, exaggerated jumping, shuddering, and hunched posture).
(§4) For experiments all mice were tested once in the same apparatus. Prior to testing, mice not in the study were placed in the apparatus for some minutes before the experiment. The apparatus was then cleaned with moist and dry tissues before testing each mouse. The aim was to create a low but constant background mouse odor for all experimental subjects. All experiments were conducted with the experimenters blind to genotype and drug treatment during all testing and data analysis. Separate investigators prepared and coded dosing solutions, allocated the mice to the study treatment groups, dosed the animals, and collected the behavioral data. Data were analyzed by one-way analysis of variance (ANOVA) followed by post-hoc comparisons where appropriate using Tukey's Multiple Comparison Test. Data are represented as the mean and standard error of the mean (SEM).
4. Hyponeophagia (inhibition of feeding) is used as a measure of anxiety which can be produced by a novel environment, particularly in rodents. […]

Fmr1 KO1 mice [1] = test: Open field repetitive behavior: counter revolutions (CCW), Fmr1 KO1 mice
Excerpt: as §1, §2, §3, §4
2. Open Field Repetitive Behaviors (RB) (stereotypies: anticlockwise circling and self grooming). Fmr1 KO1 mice display the autism-like phenotypes of repetitive behaviors like counter revolutions (CCW), self grooming and stereotypy that typically involves behaviors such as head bobbing. […]

Fmr1 KO1 mice [2] = test: Open field repetitive behavior: stereotypy count, Fmr1 KO1 mice
Excerpt: as §1, §2, §3, §4
2. Open Field Repetitive Behaviors (RB) (stereotypies: anticlockwise circling and self grooming). Fmr1 KO1 mice display the autism-like phenotypes of repetitive behaviors like counter revolutions (CCW), self grooming and stereotypy that typically involves behaviors such as head bobbing.
C. […]

N[C@H]1C=C(C(=O)O)CC1=C(F)F [Compound, (S)-3-Amino-4-(difluoromethylenyl)cyclopent-1-ene-1-carboxylic acid]
Hyponeophagia (latency to eat), WT-Veh vs. KO2-Compound: Significant? (Fmr1 KO2 mice; 0.01 mg/Kg PO QD seven days): Yes
Hyponeophagia (latency to eat), WT-Veh vs. KO2-Compound: Significant? (Fmr1 KO2 mice; 0.05 mg/Kg PO QD seven days): No
Hyponeophagia (latency to eat), WT-Veh vs. KO2-Compound: Summary (Fmr1 KO2 mice; 0.05 mg/Kg PO QD seven days): ns
Hyponeophagia (latency to eat), WT-Veh vs. KO2-Compound: Significant? (Fmr1 KO2 mice; 0.1 mg/Kg PO QD seven days): No
Hyponeophagia (latency to eat), WT-Veh vs. KO2-Compound: Summary (Fmr1 KO2 mice; 0.1 mg/Kg PO QD seven days): ns
Effect on latency to eat in hyponeophagia test (FIG. 6) (Fmr1 KO2 mice; 0.05 and 0.1 mg/Kg): decreasing their latency to eat to virtually control levels
Open field counter revolutions (CCW), WT-Veh vs. KO1-Compound: Significant? (Fmr1 KO1 mice [1]; 0.01 mg/Kg PO QD seven days): Yes
Open field counter revolutions (CCW), WT-Veh vs. KO1-Compound: Significant? (Fmr1 KO1 mice [1]; 0.05 mg/Kg PO QD seven days): No
Open field counter revolutions (CCW), WT-Veh vs. KO1-Compound: Summary (Fmr1 KO1 mice [1]; 0.05 mg/Kg PO QD seven days): ns
Open field counter revolutions (CCW), WT-Veh vs. KO1-Compound: Significant? (Fmr1 KO1 mice [1]; 0.1 mg/Kg PO QD seven days): No
Open field counter revolutions (CCW), WT-Veh vs. KO1-Compound: Summary (Fmr1 KO1 mice [1]; 0.1 mg/Kg PO QD seven days): ns
Effect on CCW repetitive behavior (FIG. 8) (Fmr1 KO1 mice [1]; 0.05 and 0.1 mg/Kg): reversed CCW repetitive behavior
Stereotypy count, WT-Veh vs. KO1-Compound: Significant? (Fmr1 KO1 mice [2]; 0.01 mg/Kg PO QD seven days): Yes
Stereotypy count, WT-Veh vs. KO1-Compound: Significant? (Fmr1 KO1 mice [2]; 0.05 mg/Kg PO QD seven days): No
Stereotypy count, WT-Veh vs. KO1-Compound: Summary (Fmr1 KO1 mice [2]; 0.05 mg/Kg PO QD seven days): ns
Stereotypy count, WT-Veh vs. KO1-Compound: Significant? (Fmr1 KO1 mice [2]; 0.1 mg/Kg PO QD seven days): No
Stereotypy count, WT-Veh vs. KO1-Compound: Summary (Fmr1 KO1 mice [2]; 0.1 mg/Kg PO QD seven days): ns
Effect on repetitive behaviors (stereotypical movements, FIG. 10) (Fmr1 KO1 mice [2]; 0.05 and 0.1 mg/Kg): decreased
